Assay results as given in EP4592286A1, “MACROCYCLIC NITROGEN-CONTAINING CROWN ETHER COMPOUND AND USE THEREOF AS PROTEIN KINASE INHIBITOR” (Artivila Biopharma, priority 2022, dated 2024).

Columns and labels:
Format in all cases: biochemical
LRRK2 = LRRK2 (Homo sapiens, UniProt Q5S007); assay: experiment of inhibiting kinase activity, LRRK2; conditions: for inhibition at 0.1 µM: at 100 nM; for inhibition at 0.1 µM / inhibition at 0.01 µM: read-out: inhibition rate LRRK2; for IC50: kinase activity assay, Table 3; for inhibition at 0.01 µM: at 10 nM
Description: (§1) The inhibition rates of tested compounds on JAK1, JAK2, JAK3, TYK2, CDK7, CDK9, EGFR (T790M) and LRRK2 kinases were measured. The test concentrations of the compounds were 10 nM and 100 nM, and the detection was performed by replicate wells. Alternatively, compounds were 3-fold serial diluted from 10 µM for 10 concentrations in replicate wells.

TYK2 = TYK2 (Homo sapiens, UniProt P29597); assay: experiment of inhibiting kinase activity, TYK2; conditions: read-out: inhibition rate TYK2; for inhibition at 0.01 µM: at 10 nM; for inhibition at 0.1 µM: at 100 nM
Description: as §1

CDK7 = CDK7 (Homo sapiens, UniProt P50613); assay: experiment of inhibiting kinase activity (Caliper mobility shift assay), CDK7; conditions: for inhibition at 0.1 µM: at 100 nM
Description: as §1
(§2) The inhibitory effects of the compounds on JAK1, JAK2, JAK3, CDK7 and CDK9 kinases were detected by the method of Caliper mobility shift assay. 250 nL of the compound at 100-fold final concentration was transferred to a destination plate 384-well-plate by using a liquid handler Echo 550. A kinase solution at 2.5-fold final concentration was prepared with 1×kinase buffer. 10 µL of the kinase solution with 2.5-fold final concentration was added to compound wells and positive control wells; and 10 µL of 1×kinase buffer was added to negative control wells. The mixture was centrifuged at 1000 rpm for 30 seconds and then incubated at room temperature for 10 minutes. A mixed solution of ATP and kinase substrate at 5/3-fold final concentration was prepared with 1×kinase buffer, and 15 µL of the mixed solution of ATP and substrate at 5/3-fold final concentration was added to start the reaction. The 384-well plate was centrifuged at 1000 rpm for 30 seconds, shaked and mixed evenly, then incubated at room temperature for a corresponding time. 30 µL of stop solution was added to stop the kinase reaction, the mixture was centrifuged at 1000 rpm for 30 seconds, and shaked and mixed evenly. The conversion rate was read by Caliper EZ Reader. The conversion inhibition rate%=(average positive control conversion rate%-sample conversion rate%)/(average positive control conversion rate%-average negative control conversion rate%). Where negative control wells represent the conversion readings of the background well of kinase buffer; and positive control wells represent the conversion readings of wells without compound inhibition. With the log value of concentration as the x axis and the percentage inhibition rate as the y axis, the dose-response curve was fitted by the log (inhibitor) vs. response-variable slope of the analyzing softwar GraphPad Prism 5, and the IC50 values of each compound on enzyme activity were obtained. Calculation formula is as follows: y=Bottom+(Top-Bottom)/(1+10^((LogIC50-x)×hillslope)), where x is logarithm of inhibitor concentration; and Y is % inhibition rate.

JAK2 = JAK2 (Homo sapiens, UniProt O60674); assay: experiment of inhibiting kinase activity (Caliper mobility shift assay), JAK2; conditions: for inhibition at 0.01 µM: at 10 nM; for inhibition at 0.01 µM / inhibition at 0.1 µM: read-out: inhibition rate JAK2; for inhibition at 0.1 µM: at 100 nM; for IC50: kinase activity assay, Table 3
Method in brief: (§3)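 Mobility-shift readout of substrate conversion; % inhibition normalized to uninhibited-enzyme wells (0%) and buffer-only background wells. Dosing: single points at 10 and 100 nM, or 3-fold series from 10 µM (10 conc.), replicates. Kinase + compound 10 min RT, then ATP/substrate.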

JAK1 = JAK1 (Homo sapiens, UniProt P23458); assay: experiment of inhibiting kinase activity (Caliper mobility shift assay), JAK1; conditions: for inhibition at 0.1 µM: at 100 nM, read-out: inhibition rate JAK1; for IC50: kinase activity assay, Table 3
Description: as §1, §2

JAK3 = target: T1, JAK3 (Homo sapiens, UniProt P52333); assay: experiment of inhibiting kinase activity (Caliper mobility shift assay), JAK3; conditions: for inhibition at 0.1 µM: at 100 nM; for inhibition at 0.1 µM / inhibition at 0.01 µM: read-out: inhibition rate JAK3; for IC50: kinase activity assay, Table 3; for inhibition at 0.01 µM: at 10 nM
T1 sequence (P52333 1-1124): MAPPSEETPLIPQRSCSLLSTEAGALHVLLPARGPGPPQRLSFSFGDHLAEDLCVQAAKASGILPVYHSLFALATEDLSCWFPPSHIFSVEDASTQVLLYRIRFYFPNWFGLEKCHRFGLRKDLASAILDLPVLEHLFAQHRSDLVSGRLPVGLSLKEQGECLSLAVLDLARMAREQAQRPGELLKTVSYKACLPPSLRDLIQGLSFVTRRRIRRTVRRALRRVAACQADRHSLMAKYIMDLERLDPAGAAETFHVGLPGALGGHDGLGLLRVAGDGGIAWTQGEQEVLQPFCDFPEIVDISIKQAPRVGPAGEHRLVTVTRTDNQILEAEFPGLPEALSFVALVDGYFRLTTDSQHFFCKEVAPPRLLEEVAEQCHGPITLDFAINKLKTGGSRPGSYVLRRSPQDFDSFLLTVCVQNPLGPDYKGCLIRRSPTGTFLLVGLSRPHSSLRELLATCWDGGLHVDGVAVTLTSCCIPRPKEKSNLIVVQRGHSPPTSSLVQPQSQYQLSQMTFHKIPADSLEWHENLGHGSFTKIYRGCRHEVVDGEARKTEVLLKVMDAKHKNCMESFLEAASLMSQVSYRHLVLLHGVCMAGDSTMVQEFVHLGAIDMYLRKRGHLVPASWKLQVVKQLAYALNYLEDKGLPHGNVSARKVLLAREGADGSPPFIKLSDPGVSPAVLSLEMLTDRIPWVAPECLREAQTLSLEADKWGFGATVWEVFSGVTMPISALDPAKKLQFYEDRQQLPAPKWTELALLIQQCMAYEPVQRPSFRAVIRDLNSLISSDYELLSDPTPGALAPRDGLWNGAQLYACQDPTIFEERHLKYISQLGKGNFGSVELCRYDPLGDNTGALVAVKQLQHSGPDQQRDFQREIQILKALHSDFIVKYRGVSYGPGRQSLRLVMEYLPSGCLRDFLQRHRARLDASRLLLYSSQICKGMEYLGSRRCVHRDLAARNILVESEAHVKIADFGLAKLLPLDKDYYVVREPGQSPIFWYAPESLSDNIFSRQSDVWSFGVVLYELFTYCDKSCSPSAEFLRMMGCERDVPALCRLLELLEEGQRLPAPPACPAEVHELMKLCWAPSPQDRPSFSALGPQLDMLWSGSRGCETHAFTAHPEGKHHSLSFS
Method in brief: as §3

CDK9 = CDK9 (Homo sapiens, UniProt P50750); assay: experiment of inhibiting kinase activity (Caliper mobility shift assay), CDK9; conditions: for inhibition at 0.01 µM: at 10 nM; for inhibition at 0.01 µM / inhibition at 0.1 µM: read-out: inhibition rate CDK9; for inhibition at 0.1 µM: at 100 nM
Description: as §1, §2

JAK1, sequence (P23458 whole entry): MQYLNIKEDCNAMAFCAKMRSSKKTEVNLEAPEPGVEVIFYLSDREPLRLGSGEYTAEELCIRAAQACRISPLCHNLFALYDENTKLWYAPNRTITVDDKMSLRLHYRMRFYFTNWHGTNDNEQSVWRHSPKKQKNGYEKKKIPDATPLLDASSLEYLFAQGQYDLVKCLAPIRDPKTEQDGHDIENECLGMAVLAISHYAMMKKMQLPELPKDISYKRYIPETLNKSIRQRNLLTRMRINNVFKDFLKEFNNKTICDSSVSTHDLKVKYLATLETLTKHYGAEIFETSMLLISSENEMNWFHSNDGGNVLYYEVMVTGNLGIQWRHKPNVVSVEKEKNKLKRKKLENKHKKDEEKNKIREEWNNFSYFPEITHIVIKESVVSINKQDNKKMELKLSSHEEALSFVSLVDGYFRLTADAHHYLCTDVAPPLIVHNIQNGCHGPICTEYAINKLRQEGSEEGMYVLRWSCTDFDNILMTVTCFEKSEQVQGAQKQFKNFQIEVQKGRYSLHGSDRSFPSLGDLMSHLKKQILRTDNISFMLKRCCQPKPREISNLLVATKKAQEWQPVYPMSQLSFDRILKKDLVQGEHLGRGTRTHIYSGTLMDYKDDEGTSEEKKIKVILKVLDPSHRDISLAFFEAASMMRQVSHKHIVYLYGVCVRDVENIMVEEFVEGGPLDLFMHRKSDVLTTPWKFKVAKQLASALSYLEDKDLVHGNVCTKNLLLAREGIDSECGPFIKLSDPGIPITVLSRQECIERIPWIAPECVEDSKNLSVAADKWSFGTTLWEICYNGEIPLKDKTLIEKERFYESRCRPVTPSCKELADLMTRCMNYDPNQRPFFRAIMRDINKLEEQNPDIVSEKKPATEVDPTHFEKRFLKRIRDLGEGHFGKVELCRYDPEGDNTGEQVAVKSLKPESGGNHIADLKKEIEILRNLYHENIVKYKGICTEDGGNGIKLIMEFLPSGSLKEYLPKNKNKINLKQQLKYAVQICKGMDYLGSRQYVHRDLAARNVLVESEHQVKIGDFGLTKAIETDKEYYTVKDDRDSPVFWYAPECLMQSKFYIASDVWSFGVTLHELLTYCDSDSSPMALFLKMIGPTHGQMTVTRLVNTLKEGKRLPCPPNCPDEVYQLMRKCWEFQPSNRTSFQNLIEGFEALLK
CDK7, sequence (P50613 whole entry, species assumed): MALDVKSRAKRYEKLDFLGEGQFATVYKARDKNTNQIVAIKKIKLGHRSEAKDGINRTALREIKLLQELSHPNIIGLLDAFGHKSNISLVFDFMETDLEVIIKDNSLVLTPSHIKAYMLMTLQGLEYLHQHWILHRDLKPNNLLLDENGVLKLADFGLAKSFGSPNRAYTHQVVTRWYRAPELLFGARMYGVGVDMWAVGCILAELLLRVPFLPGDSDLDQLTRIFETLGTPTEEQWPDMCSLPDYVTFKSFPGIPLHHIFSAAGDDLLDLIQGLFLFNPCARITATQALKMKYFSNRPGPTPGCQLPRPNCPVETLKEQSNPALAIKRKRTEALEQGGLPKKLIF
CDK7, sequence (P51946 whole entry partner, species assumed): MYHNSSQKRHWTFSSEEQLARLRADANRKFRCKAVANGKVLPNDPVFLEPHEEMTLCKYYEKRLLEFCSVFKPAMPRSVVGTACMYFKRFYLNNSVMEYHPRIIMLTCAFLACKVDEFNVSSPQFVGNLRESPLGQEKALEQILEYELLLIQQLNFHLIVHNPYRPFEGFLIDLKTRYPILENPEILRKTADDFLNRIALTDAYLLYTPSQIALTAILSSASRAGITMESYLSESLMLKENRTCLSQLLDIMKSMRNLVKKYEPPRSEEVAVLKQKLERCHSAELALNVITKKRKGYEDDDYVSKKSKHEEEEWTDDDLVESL
CDK7, sequence (P51948 whole entry partner, species assumed): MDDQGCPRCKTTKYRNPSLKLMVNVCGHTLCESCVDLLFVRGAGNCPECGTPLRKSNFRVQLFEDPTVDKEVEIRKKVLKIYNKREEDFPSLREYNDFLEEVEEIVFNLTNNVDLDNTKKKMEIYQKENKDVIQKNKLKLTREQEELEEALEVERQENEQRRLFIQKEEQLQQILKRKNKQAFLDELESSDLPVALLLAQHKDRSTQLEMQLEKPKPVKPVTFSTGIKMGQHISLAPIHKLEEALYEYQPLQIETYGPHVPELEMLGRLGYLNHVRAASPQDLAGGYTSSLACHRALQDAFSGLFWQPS
LRRK2, sequence (Q5S007 whole entry): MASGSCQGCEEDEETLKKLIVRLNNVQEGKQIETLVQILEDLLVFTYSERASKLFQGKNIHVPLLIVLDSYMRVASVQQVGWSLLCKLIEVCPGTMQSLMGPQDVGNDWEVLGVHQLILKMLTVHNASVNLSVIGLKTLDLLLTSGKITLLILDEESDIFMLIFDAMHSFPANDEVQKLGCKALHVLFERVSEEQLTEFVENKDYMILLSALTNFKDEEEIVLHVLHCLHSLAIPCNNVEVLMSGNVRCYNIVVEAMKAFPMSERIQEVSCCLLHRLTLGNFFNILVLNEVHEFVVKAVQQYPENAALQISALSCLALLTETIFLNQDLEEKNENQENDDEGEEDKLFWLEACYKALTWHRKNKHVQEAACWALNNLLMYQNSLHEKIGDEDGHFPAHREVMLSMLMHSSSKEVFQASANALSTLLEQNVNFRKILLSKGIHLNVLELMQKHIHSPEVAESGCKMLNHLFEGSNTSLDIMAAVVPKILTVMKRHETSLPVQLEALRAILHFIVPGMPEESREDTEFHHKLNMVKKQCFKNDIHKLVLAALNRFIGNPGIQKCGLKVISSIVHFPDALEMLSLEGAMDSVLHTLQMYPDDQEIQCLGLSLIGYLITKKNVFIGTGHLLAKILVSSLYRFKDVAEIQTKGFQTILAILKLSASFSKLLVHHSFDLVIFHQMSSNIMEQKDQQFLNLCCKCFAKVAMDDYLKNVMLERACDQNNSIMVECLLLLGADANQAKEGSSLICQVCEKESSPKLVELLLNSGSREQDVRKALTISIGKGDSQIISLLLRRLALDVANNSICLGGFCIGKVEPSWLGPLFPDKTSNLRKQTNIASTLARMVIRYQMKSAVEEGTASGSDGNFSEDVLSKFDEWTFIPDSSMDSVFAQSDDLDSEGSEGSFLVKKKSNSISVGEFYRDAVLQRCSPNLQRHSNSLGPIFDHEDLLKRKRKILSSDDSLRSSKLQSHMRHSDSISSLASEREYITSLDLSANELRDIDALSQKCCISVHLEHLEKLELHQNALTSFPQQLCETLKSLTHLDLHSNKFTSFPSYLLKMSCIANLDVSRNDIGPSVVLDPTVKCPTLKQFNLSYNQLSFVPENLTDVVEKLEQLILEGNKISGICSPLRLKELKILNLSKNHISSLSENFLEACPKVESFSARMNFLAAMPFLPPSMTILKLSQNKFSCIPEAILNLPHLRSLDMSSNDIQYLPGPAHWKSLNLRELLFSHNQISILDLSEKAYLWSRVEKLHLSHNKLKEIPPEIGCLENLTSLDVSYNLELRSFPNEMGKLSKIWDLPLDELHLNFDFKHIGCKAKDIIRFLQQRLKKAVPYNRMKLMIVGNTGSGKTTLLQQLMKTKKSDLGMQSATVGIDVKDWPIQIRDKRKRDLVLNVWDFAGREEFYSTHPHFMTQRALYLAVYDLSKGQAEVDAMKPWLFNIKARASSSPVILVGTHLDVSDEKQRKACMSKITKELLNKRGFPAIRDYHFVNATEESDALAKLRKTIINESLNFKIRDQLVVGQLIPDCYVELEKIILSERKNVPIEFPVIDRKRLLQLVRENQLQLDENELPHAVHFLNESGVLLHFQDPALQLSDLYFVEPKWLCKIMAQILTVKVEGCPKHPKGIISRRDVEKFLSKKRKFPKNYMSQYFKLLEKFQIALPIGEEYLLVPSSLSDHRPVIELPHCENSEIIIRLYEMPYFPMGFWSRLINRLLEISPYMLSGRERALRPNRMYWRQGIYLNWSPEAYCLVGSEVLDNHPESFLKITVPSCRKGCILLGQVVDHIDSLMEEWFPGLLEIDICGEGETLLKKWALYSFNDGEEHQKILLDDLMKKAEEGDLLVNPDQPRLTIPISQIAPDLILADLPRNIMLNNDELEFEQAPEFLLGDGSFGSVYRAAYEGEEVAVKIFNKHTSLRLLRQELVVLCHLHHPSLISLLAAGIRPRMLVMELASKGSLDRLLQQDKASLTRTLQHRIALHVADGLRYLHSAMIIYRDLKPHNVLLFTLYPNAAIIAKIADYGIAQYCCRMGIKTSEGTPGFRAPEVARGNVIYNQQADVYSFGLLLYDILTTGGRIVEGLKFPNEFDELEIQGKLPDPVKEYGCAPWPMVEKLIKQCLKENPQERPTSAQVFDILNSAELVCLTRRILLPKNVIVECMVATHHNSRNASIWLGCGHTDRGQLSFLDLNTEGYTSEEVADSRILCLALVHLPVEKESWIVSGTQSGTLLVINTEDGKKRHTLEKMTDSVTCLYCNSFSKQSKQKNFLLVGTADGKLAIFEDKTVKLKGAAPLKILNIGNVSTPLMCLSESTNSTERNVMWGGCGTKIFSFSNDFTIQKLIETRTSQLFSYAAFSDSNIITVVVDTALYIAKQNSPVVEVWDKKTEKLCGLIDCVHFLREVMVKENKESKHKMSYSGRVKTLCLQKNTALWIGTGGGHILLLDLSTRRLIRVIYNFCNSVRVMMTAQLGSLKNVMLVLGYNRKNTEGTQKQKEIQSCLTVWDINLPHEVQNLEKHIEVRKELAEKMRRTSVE

Structure (SMILES) | inhibition at 0.1 µM (LRRK2) [%] | IC50 (LRRK2) [nM] | inhibition at 0.01 µM (TYK2) [%] | inhibition at 0.1 µM (TYK2) [%] | inhibition at 0.1 µM (CDK7; read-out: inhibition rate CDK7) [%] | inhibition at 0.01 µM (JAK2) [%] | inhibition at 0.1 µM (JAK2) [%] | IC50 (JAK2) [nM] | inhibition at 0.1 µM (JAK1) [%] | inhibition at 0.1 µM (JAK3) [%] | IC50 (JAK3) [nM] | inhibition at 0.01 µM (LRRK2) [%] | inhibition at 0.01 µM (CDK9) [%] | inhibition at 0.1 µM (CDK9) [%] | inhibition at 0.01 µM (JAK3) [%] | IC50 (CDK9; kinase activity assay, Table 3) [nM] | IC50 (JAK1) [nM] | inhibition at 0.01 µM (CDK7; at 10 nM, read-out: inhibition rate CDK7) [%] | IC50 (CDK7; kinase activity assay, Table 3) [nM]
CC(C)S(=O)(=O)c1ccccc1Nc1nc(Nc2ccc3c(c2)OCCOCCN(C)CCO3)nc2[nH]cnc12 [Example 60, N^6-(2-(isopropylsulfonyl)phenyl)-N^2-(7-methyl-2,3,6,7,8,9-hexahydro-5H-benzo[b][1,4,7]trioxa[10]azacyclododecan-13-yl)-9H-purin-2,6-diamine] | > 80 |  |  | 40 to 79 | > 80 | 40 to 79 | > 80 |  |  | > 80 |  | 40 to 79 |  | 40 to 79 | 40 to 79 |  |  | > 80 | 
CC(C)S(=O)(=O)c1ccccc1Nc1nc(Nc2ccc3c(c2)OCCOCCN(C)CCO3)nc2[nH]ncc12 [Example 11, N^4-(2-(isopropylsulfonyl)phenyl)-N^6-(7-methyl-2,3,6,7,8,9-hexahydro-5H-benzo[b][1,4, 7]trioxa[10]azacyclododecan-13-yl)-1H-pyrazolo[3,4-d]pyrimidin-4,6-diamine] | 40 to 79 |  | 25 to 39 | > 80 | 40 to 79 | 40 to 79 | > 80 |  |  | > 80 |  |  |  |  | 40 to 79 |  |  |  | 
CC(C)S(=O)(=O)c1ccccc1Nc1nc(Nc2ccc3c(c2)OCCN(C)CCO3)nc2[nH]ccc12 [Example 35, N^4-(2-(isopropylsulfonyl)phenyl)-N^2-(4-methyl-3,4,5,6-tetrahydro-2H-benzo[b][1,4, 7]dioxazolin-9-yl)-7H-pyrrolo[2,3-d]pyrimidin-2,4-diamine] | > 80 | < 50 |  | 40 to 79 | 40 to 79 | 40 to 79 | > 80 | < 50 | 40 to 79 | > 80 | < 50 | > 80 |  |  | 25 to 39 |  | 50 to 200 |  | < 50
CN1CCOCCOc2cc(Nc3nc(Nc4cccc(S(=O)(=O)NC(C)(C)C)c4)c4cc[nH]c4n3)ccc2OCC1 [Example 20, N-(tert-butyl)-3-((2-((7-methyl-2,3,6,7,8,9-hexahydro-5H-benzo[b][1,4,7]trioxa[10]azacyclododecan-13-yl)amino)-7H-pyrrolo[2,3-d]pyrimidin-4-yl)amino)benzenesulfonamide] | 40 to 79 |  |  | 25 to 39 | 40 to 79 |  | > 80 |  |  | 40 to 79 |  |  |  |  |  |  |  |  | 

Next, values leading:

inhibition at 0.1 µM (LRRK2) [%] | IC50 (LRRK2) [nM] | inhibition at 0.01 µM (TYK2) [%] | inhibition at 0.1 µM (TYK2) [%] | inhibition at 0.1 µM (CDK7; read-out: inhibition rate CDK7) [%] | inhibition at 0.01 µM (JAK2) [%] | inhibition at 0.1 µM (JAK2) [%] | IC50 (JAK2) [nM] | inhibition at 0.1 µM (JAK1) [%] | inhibition at 0.1 µM (JAK3) [%] | IC50 (JAK3) [nM] | inhibition at 0.01 µM (LRRK2) [%] | inhibition at 0.01 µM (CDK9) [%] | inhibition at 0.1 µM (CDK9) [%] | inhibition at 0.01 µM (JAK3) [%] | IC50 (CDK9; kinase activity assay, Table 3) [nM] | IC50 (JAK1) [nM] | inhibition at 0.01 µM (CDK7; at 10 nM, read-out: inhibition rate CDK7) [%] | IC50 (CDK7; kinase activity assay, Table 3) [nM] | Structure (SMILES)
40 to 79 | 50 to 200 | 40 to 79 | > 80 | 40 to 79 | 40 to 79 | > 80 | < 50 | 40 to 79 | 40 to 79 | < 50 |  |  |  |  |  |  |  |  | CN1CCOc2ccc(Nc3ncc(F)c(-c4cnn(C(CC#N)C5CCCC5)c4)n3)cc2OCC1 (stereo not drawn) [Example 25]
> 80 |  |  | 40 to 79 | 40 to 79 | 40 to 79 | > 80 |  |  | > 80 |  | 40 to 79 | 25 to 39 | 40 to 79 | 40 to 79 |  |  |  |  | Cc1nc2c(F)cc(-c3nc(Nc4ccc5c(c4)OCCOCCN(C)CCO5)nc4[nH]ccc34)cc2n1C(C)C [Example 31, N-(4-(4-fluoro-1-isopropyl-2-methyl-1H-benzo[d]imidazol-6-yl)-7H-pyrrolo[2,3-d]pyrimidin-2-yl)-7-methyl-2,3,6,7,8,9-hexahydro-5H-benzo[b][1,4,7]trioxa[10] azacyclododecan-13-amine]
25 to 39 |  | 40 to 79 | > 80 | 25 to 39 | 40 to 79 | > 80 | < 50 | 40 to 79 | > 80 | < 50 |  |  |  | 40 to 79 |  |  |  |  | CCS(=O)(=O)N1CC(CC#N)(n2cc(-c3nc(Nc4ccc5c(c4)OCCN(C)CCO5)ncc3F)cn2)C1 [Example 37, 2-(1-(ethylsulfonyl)-3-(4-(5-fluoro-2-((4-methyl-3,4,5,6-tetrahydro-2H-benzo[b] [1,4,7]dioxazolin-9-yl)amino)pyrimidin-4-yl)-1H-pyrazol-1-yl)azetidin-3-yl)acetonitrile]
 |  |  |  |  |  |  |  |  |  |  |  | 40 to 79 |  |  | < 50 |  |  |  | COc1ccc(F)cc1-c1nc(Nc2ccc3c(c2)OCCOCCN(C)CCO3)ncc1F [Example 115, N-(5-fluoro-4-(5-fluoro-2-methoxyphenyl)pyrimidin-2-yl)-7-methyl-2,3,6,7,8,9-hexahydro-5H-benzo[b][1,4,7]trioxa[10]azacyclododecan-13-amine]
40 to 79 | 50 to 200 | 25 to 39 | > 80 |  | 40 to 79 | > 80 | < 50 | 40 to 79 |  | < 50 |  |  | 40 to 79 |  |  | < 50 |  |  | CN1CCOc2ccc(Nc3ncc(F)c(-c4ccc(C(=O)NCC#N)cc4)n3)cc2OCC1 [Example 15, N-(Cyanomethyl)-4-(5-fluoro-2-((4-methyl-3,4,5,6-tetrahydro-2H-benzo[b][1,4,7]dioxazolin-9-yl)amino)pyrimidin-4-yl)benzamide]
 | < 50 |  |  |  |  |  |  |  |  |  |  |  | > 80 |  |  |  |  |  | CN1CCOc2ccc(Nc3nc(NCCP(C)(C)=O)c4cc[nH]c4n3)cc2OCC1 [Example 85, dimethyl(2-((2-((4-methyl-3,4,5,6-tetrahydro-2H-benzo[b][1,4,7]dioxazolin-9-yl)amino)-7H-pyrrolo[2,3-d]pyrimidin-4-yl)amino)ethyl)phosphine oxide]
